According to patent US9545411B2, “Methods and compositions for treating progesterone-dependent conditions” (REPROS THERAPEUTICS INC., priority 2012, dated 2017):

Tests used:
[1] = Clinical trials of daily oral Proellex (CDB-4124): liver toxicity / liver enzymes; assay type: in vivo, human; conditions: for subjects with liver enzyme elevations reported as SAEs: of seven SAEs
Method: (§1) The maximum concentrations of CDB-4124 and its mono-demethylated metabolite (CDB-4453) for the 12.5 mg dose were 25% of the 50 mg dose. All liver toxicities resolved in those women that returned for safety follow-ups, including those subjects that developed liver-associated serious adverse effects (SAEs).
To date, over 600 patients, including women with confirmed cases of endometriosis or uterine fibroids, have participated in double blind and open label clinical trials in which patients were administered daily oral capsules containing doses of 12.5 mg, 25 mg or 50 mg CDB-4124 (Proellex) for over one month. Of these patients, about 500 received Proellex and about 130 received a placebo. Of the patients receiving Proellex, about 190 received a dose of 50 mg CDB-4124 per day, about 260 received a dose of 25 mg CDB-4124 per day and about 55 received a dose of 12.5 mg per day.
Liver enzymes were frequently monitored in participating subjects. The liver enzyme level at which the clinical trials would be discontinued was set at an increase in liver aminotransferases greater than, or equal to three times the Upper Limit of Normal (≧3×ULN).
Of the nine subjects with a confirmed increase in liver enzymes ≧3×ULN, seven were severe enough elevations to be reported to the FDA as SAEs. One of these seven subjects had been receiving a dose of 25 mg CDB-4124 per day; the remaining six subjects had been receiving a dose of 50 mg CDB-4124 per day. Liver enzymes ≧3×ULN persisted in five of the nine subjects with a confirmed increase in liver enzymes ≧3×ULN. These five subjects had previously been dosed with the 50 mg dose. One of these subjects is receiving oral medication for treatment of their liver condition. Clinical trials involving CDB-4124 at all doses were voluntarily suspended as a result of these SAEs and were subsequently placed on clinical hold by the United States Food and Drug Administration for safety reasons.

[2] = Pharmacokinetic studies in clinical trial subjects after oral CDB-4124; assay type: in vivo, human; conditions: for maximum concentration for the 12.5 mg dose as percentage of the 50 mg dose: oral CDB-4124
Method: as §1
Pharmacokinetic studies performed on participating subjects detected a high Cmax and a Tmax at 1-2 hours following administration. Large quantities of the monodemethylated metabolite of CDB-4124 were also detected, clearly indicating first pass metabolism of the antiprogestin. […] Metabolism of CDB-4124 by the liver provides the opportunity for liver damage and greatly reduces the concentration of the antiprogestin before it reaches the systemic circulation. Thus, alternative routes of administration of antiprogestins that avoid first pass metabolism such as, without limitation, intravenous, intramuscular, and sublingual, should allow antiprogestins to be absorbed directly into the systemic circulation and thereby provide a method for treating progesterone-dependent conditions while avoiding liver toxicity. Administration routes which avoid first pass metabolism may also require less drug per dose to achieve the same therapeutic benefit relative to oral administration.

[3] = tested on: primary cultures of human and animal hepatocytes; assay: Metabolism in primary cultures of hepatocytes; assay type: in vitro ADME; conditions: primary hepatocyte cultures
[4] = tested on: DMBA-induced breast tumors; assay: DMBA-induced breast tumor model, subcutaneous injection; assay type: in vivo, rodents
Method: Pre-clinical studies were performed on rodents with breast tumors induced by 7,12-Dimethylbenz(a)anthracene (DMBA).

[5] = Oral versus vaginal pharmacokinetics in beagles (25 mg); assay type: in vivo; conditions: for metabolism after oral administration: oral micronized powder; for metabolism after vaginal administration / peak plasma concentration (Cmax): vaginal suppository
Method: FIG. 1 illustrates a comparison of the Cmax (peak serum concentration) and area under the curve (AUC) following oral and vaginal administration of CDB-4124 or CDB-4453 at a 25 mg dose in beagles.
Beagles were administered 25 mg of CDB-4124 or CDB-4453 (the monodemethylated metabolite of CDB-4124) formulated as either a micronized powder or a vaginal suppository.

[6] = Cmax after vaginal administration in beagles extrapolated to humans; assay type: in vivo; conditions: for predicted Cmax for vaginal administration as percentage of the same oral dose: humans, extrapolated from beagles
Method: FIG. 2 illustrates the actual Cmax observed for Proellex (CDB-4124) and its monodemethylated metabolite CDB-4453, following oral administration of CDB-4124 at 12.5 mg, 25 mg and 50 mg doses as well as the projected Cmax for 3 mg, 6 mg and 9 mg doses. FIG. 2 also illustrates the actual Cmax observed for Proellex (CDB-4124) and its monodemethylated metabolite CDB-4453, following vaginal administration of CDB-4124 at 12.5 mg, 25 mg and 50 mg doses.
The maximum circulating concentrations (Cmax) of CDB-4124 obtained following vaginal administration to beagles were extrapolated to humans for the 12.5 mg, 25 mg and 50 mg doses actually administered during the Phase III clinical studies.
For example, equivalent antiprogestational activity at the uterus is observed for a 50 mg oral dose of CDB-4124 and a 12.5 mg vaginal dose; however, the Cmax observed with a 12.5 mg vaginal dose is only 2% that observed with a 50 mg oral dose. […] Because a high concentration of the drug in the systemic circulation (and associated first pass metabolism of the drug) is not reached by local administration, avoidance of the severe liver toxicity observed in a small percentage of subjects following oral administration of CDB-4124 in previous Phase III clinical studies at doses of 25 and 50 mg is a surprising advantage of administering the drug locally. Similar advantages should inure to local administration of other antiprogestins.

[7] = tested on: progesterone-induced endometrial proliferation; assay: Anti-Clauberg study, subcutaneous versus oral; assay type: in vivo, rabbits
Excerpt: FIG. 3 illustrates a comparison of the inhibition of progesterone-induced endometrial proliferation in estradiol-primed immature rabbits following subcutaneous injection and oral administration of CDB-4124.
To determine whether the low circulating levels of CDB-4124 when administered locally could have any impact predictive of efficacy, an anti-Clauberg study was run in which immature estradiol-primed rabbits were coadministered progesterone and various doses of CDB-4124 by either subcutaneous or oral administration. At least 3 different highly trained individuals evaluated the rabbit uterus for glandular growth, for complexity and overall progesterone-induced “development”. The inhibition (by percentage) of progesterone-induced endometrial proliferation at each dose was assayed. […] However, maximal inhibition required a ˜8-fold increase in dosage when administered orally (i.e. 8 mg/kg). Importantly 8 mg/kg corresponds closely to the 50 mg/day dose of CDB-4124 administered to the female subjects described in Example 3.

[8] = tested on: progesterone-induced endometrial proliferation; assay: Anti-Clauberg study, vaginal versus oral (McPhail index); assay type: in vivo, rabbits
Method: FIG. 4 compares the antiprogestational effects of three doses of CDB-4124 when delivered orally versus when delivered to the vaginal mucosa of estradiol-primed immature rabbits in the presence of progesterone, as measured by a decrease in the McPhail index. Treatment with progesterone alone (vehicle control) provided a baseline measurement of progestational activity.
Another anti-Clauberg study was run in which immature estradiol-primed rabbits were administered progesterone alone (vehicle control) or were coadministered progesterone and three doses of CDB-4124 by either vaginal or oral administration. The inhibition of progesterone-induced endometrial proliferation at each dose was assayed. FIG. 3 illustrates the decrease in the McPhail index following increasing doses of CDB-4124 administered by either route. Maximal inhibition (i.e. a decrease in the McPhail index to 1.5) occurred at 0.2 mg/kg CDB-4124 when administered vaginally, compared to 0.8 mg/kg when administered orally.

uterine fibroids = assay: Single blind study of vaginal CDB-4124 in females with uterine fibroids; assay type: in vivo, human; conditions: vaginal 12 mg daily
Method: Seven human females with uterine fibroids have completed 4 months of treatment as part of a single blind study. These females were vaginally administered a daily dose of 12 mg CDB-4124 for a period of four months, with dosing initiated during the luteal phase of the females' menstrual cycles. At the end of the four month treatment period, all seven females stopped menstruating and all reported a Pictural Blood Loss Assessment Chart (PBAC) score of 0 (p=0.002). A statistically significant and highly clinically meaningful reduction in Uterine Fibroid Symptom Quality of Life Survey (UFSQOL) scores was also observed. The mean UFSQOL score at baseline was 43.8 and at the end of the four month treatment period the mean score was 1.33 (p=0.001). […] As a reference, women with fibroids typically score 40 or higher, whereas women without fibroids report scores of approximately 20.
Change in fibroid volume at the end of the four month treatment period determined by magnetic resonance imagining (MRI) was assessed and a statistically significant (chi square analysis) median reduction of total fibroid volume of 36% was observed.

[9] = Oral study, 1-12 mg CDB-4124 for 10 weeks; assay type: in vivo
Method: (§2) In an oral study, doses of 1, 3, 6, 9 and 12 mg of CDB-4124 were administered for a period of 10 weeks. […] Cessation of menses directly correlated to efficacy of an oral dose in both uterine fibroids and endometriosis.

[10] = Pharmacokinetic analysis of vaginal administration of 12 mg CDB-4124; assay type: in vivo, human
Method: as §2
Thus, the onset of amenorrhea is delayed when the drug is administered vaginally, necessitating that the drug be vaginally administered during subsequent menstruations, which tends to reduce absorption of the drug and is unpleasant and technically challenging for the patient. The methods of the present invention provide a solution to this problem by providing a brief period of oral administration, preceding and overlapping vaginal administration, which expedites the onset of amenorrhea while retaining the benefits of vaginal administration.

[11] = tested on: hypothalamic pituitary axis (HPA); assay: Low-dose oral CDB-4124: effect on ovulation; assay type: in vivo; conditions: about 3-25 mg
Excerpt: Contemporaneous systemic and local administration of antiprogestins to treat hormonally responsive breast cancer (i.e. the breast tumor contains estrogen and/or progesterone receptor) has advantages as well.

COCC(=O)[C@@]1(OC(C)=O)CC[C@H]2[C@@H]3CCC4=CC(=O)CCC4=C3[C@@H](c3ccc(N(C)C)cc3)C[C@@]21C [CDB-4124, 21-methoxy-17α-acetoxy-11β-(4 N, N-dimethylaminophenyl)-19-norpregna-4,9-diene-3,20-dione]
adverse liver toxicity signals ([1]; 12.5 mg): no adverse liver toxicity signals different from placebo | subjects with liver enzyme elevations reported as SAEs ([1]; 25 mg per day): One | frequency and intensity of liver effects relative to 50 mg/day ([1]; 25 mg/day): significantly lower in frequency and intensity | subjects in whom liver enzymes ≧3×ULN persisted ([1]; 50 mg dose, of nine confirmed): five | subjects with liver enzyme elevations reported as SAEs ([1]; 50 mg per day): six | women exhibiting severe liver toxicity ([1]; 50 mg/day): 3-4% | subjects with confirmed increase in liver enzymes ≧3×ULN ([1]; all doses (12.5, 25, 50 mg/day), confirmed by repeat test in 48 hours): nine | Tmax ([2]; following oral administration): 1 to 2 h | maximum concentration for the 12.5 mg dose as percentage of the 50 mg dose [2]: 25% | formation of mono-demethylated metabolite [3]: rapidly produce the mono-demethylated metabolite | effect on quantity and size of DMBA-induced breast tumors [4]: effective in reducing the quantity and size of DMBA-induced breast tumors | systemic exposure (AUC), vaginal vs. oral [5]: much lower when administered locally | metabolism after oral administration [5]: rapidly metabolized | metabolism after vaginal administration [5]: metabolized slowly | peak plasma concentration (Cmax) [5]: relatively low | predicted Cmax for vaginal administration as percentage of the same oral dose ([6]; 12.5 mg dose): approximately 6.5% | predicted Cmax for vaginal administration as percentage of the same oral dose ([6]; 50 mg dose): approximately 2% | Cmax with a 12.5 mg vaginal dose as percentage of a 50 mg oral dose ([6]; in vivo, po): 2% | dose giving maximal inhibition of progesterone-induced endometrial proliferation ([7]; oral): 8 mg/kg | increase in dosage required for maximal inhibition, oral vs. subcutaneous ([7]; rabbit, in vivo): ~8 fold | dose giving maximal inhibition of progesterone-induced endometrial proliferation ([7]; subcutaneous): less than 1 mg/kg | McPhail index at maximal inhibition ([8]; 0.2 mg/kg vaginal or 0.8 mg/kg oral): 1.5 | dose giving maximal inhibition (decrease in McPhail index) ([8]; oral): 0.8 mg/kg | antiprogestational activity of vaginal delivery relative to the same oral dose ([8]; rabbit, in vivo, po): four | dose giving maximal inhibition (decrease in McPhail index) ([8]; vaginal): 0.2 mg/kg | median reduction of total fibroid volume (MRI) (uterine fibroids; end of four months): 36% | Pictural Blood Loss Assessment Chart (PBAC) score (uterine fibroids; end of four months, p=0.002): 0 | females who stopped menstruating (uterine fibroids; end of four months, seven females): seven | mean Uterine Fibroid Symptom Quality of Life Survey (UFSQOL) score (uterine fibroids; end of four months, baseline 43.8, p=0.001): 1.33 | females no longer experiencing any fibroid related symptoms (uterine fibroids; four months, of seven): six | lowest dose inducing reliable cessation of menses ([9]; oral): 3 mg | tolerability ([9]; oral 1, 3, 6, 9 and 12 mg): well tolerated | maximum exposure (Cmax) relative to a 50 mg oral dose ([10]; vaginal 12 mg): about 1/100 | systemic exposure (AUC) relative to an equivalent oral dose ([10]; vaginal 12 mg): about ⅙ | build-up of drug concentration, vaginal relative to oral ([10]; vaginal administration): build slowly | suppression of ovulation [11]: partially but not completely suppress ovulation

CNc1ccc([C@H]2C[C@@]3(C)[C@@H](CC[C@]3(OC(C)=O)C(=O)COC)[C@@H]3CCC4=CC(=O)CCC4=C32)cc1 [CDB-4453, 21-methoxy-17α-acetoxy-11β-(4-N-methylaminophenyl)-19-norpregna-4,9-diene-3,20-dione]
maximum concentration for the 12.5 mg dose as percentage of the 50 mg dose [2]: 25% | systemic exposure (AUC), vaginal vs. oral [5]: much lower when administered locally | metabolism after oral administration [5]: rapidly metabolized | metabolism after vaginal administration [5]: metabolized slowly | peak plasma concentration (Cmax) [5]: relatively low
